pKd: −log10 of the molar value. One block for each molecule: values may come before it.
Columns and labels:
TNFα-TNFR1 interaction = TNFα-TNFR1 interaction (Homo sapiens, UniProt P01375); test: TNFα-TNFR1 competition ELISA; assay type: binding; details: 100 μM SPD304 alone
[1] = tested on: TNFα-mediated death of WEHI-13VAR cells; test: WEHI-13VAR cell viability assay; assay type: cell-based, mouse; details: pre-incubation of TNFα with 20 μM SPD304 alone; final 20 nM after dilution
[2] = optical sensor assay; cited from earlier work
[3] = molecular target: bicyclic 19-mer peptide (synthetic construct); details: cited from earlier work
TNFα trimer = TNFα trimer (Homo sapiens, UniProt P01375); test: TNFα oligomerization state by SEC; assay type: biochemical; details: 1 μM TNFα, additive without peptide (0.05% TWEEN20, one hour RT; 10 μM SPD304)
TNFα trimer, sequence (P01375 77-233 limits assumed): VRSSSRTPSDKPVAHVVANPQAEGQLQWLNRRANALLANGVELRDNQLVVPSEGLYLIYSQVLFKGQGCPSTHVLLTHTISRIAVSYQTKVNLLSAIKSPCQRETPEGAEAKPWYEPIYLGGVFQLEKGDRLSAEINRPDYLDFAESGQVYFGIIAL

TNFα-TNFR1 interaction, sequence (P01375 77-233 limits assumed): as above
TNFα, sequence (P01375 77-233): as the sequence (P01375 77-233 limits assumed) above

Molecule: Cc1cc2occ(CN(C)CCN(C)Cc3cn(-c4cccc(C(F)(F)F)c4)c4ccccc34)c(=O)c2cc1C [SPD304]
TNFα binding to TNFR1 blocked (TNFα-TNFR1 interaction): ~ 30% | block of TNFα-mediated cell death by additive alone [1]: did not substantially block | critical aggregation concentration (CAC) [2]: 10 µM

Molecule: TNFα (from UniProt P01375)
pKd [3]: 8.30

effect of additive alone on TNFα trimer by SEC (TNFα trimer): did not change
Molecule: TWEEN20

Reference: PMC7654703 (ACS chemical biology, 2020)
